Measurements from patent US20230139826A1 (NONO INC., priority 2020, published 2023).
Marks after values point to notes of the source that are not given here. Residues, ends and D or L forms follow the SMILES beside them.

Tested on: acute ischemic stroke
Experiment: ESCAPE-NA1 trial: efficacy of intravenous nerinetide in patients with acute ischemic stroke undergoing thrombectomy
Assay type: in vivo, human
Description: ESCAPE-NA1 was a multicenter, randomized, double-blinded, placebo-controlled, parallel group, single-dose study to determine the efficacy and safety of intravenous nerinetide in patients with acute ischemic stroke who were selected to undergo thrombectomy. Patients were randomized in a 1:1 ratio to receive a single, 2.6 mg/kg (up to a maximum dose of 270 mg) intravenous dose of nerinetide or saline placebo delivered over 10+1 minutes. Nerinetide and placebo were prepared as colorless solutions in numbered, refrigerated vials.
Randomization in a 1:1 ratio to nerinetide or placebo occurred using a real-time, dynamic, Internet-based, stratified randomized minimization procedure. Stratification occurred on the use of intravenous alteplase (yes/no) and declared initial thrombectomy device (stent-retriever or aspiration device). The choice to stratify was based upon the possibility of drug-drug or drug-device interactions. Randomized minimization occurring within strata aimed to achieve distribution balance with regard to age, sex, baseline National Institutes of Health Stroke Scale (NIHSS) score (range, 0 to 42, with higher scores indicating greater stroke severity), site of arterial occlusion, baseline Alberta Stroke Program Early Computed Tomography Score (ASPECTS; range, 0 to 10, with 1 point subtracted for any evidence of early ischemic change in each defined region on the CT scan) and clinical site.
Eligible patients were adults aged 18 or greater with a disabling ischemic stroke at the time of randomization (baseline NIHSS>5), who had been functioning independently in the community (Barthel Index score>90 [range, 0 to 100, with higher scores indicating a greater ability to complete activities of daily living])^1 before the stroke. Enrollment occurred up to 12 hours after the onset of stroke symptoms (last-seen-well time). Non-contrast CT and multiphase CTA were performed at the thrombectomy center to identify patients with a confirmed proximal intracranial artery occlusion, defined as the intracranial internal carotid artery or the first segment of the middle cerebral artery or both.
After qualifying imaging, patients were treated with rapid EVT using currently available devices. Some patients received intravenous alteplase according to usual care following national or regional guidelines, before or during EVT, at a primary hospital prior to transfer or at the endovascular center. Interpretation of treatment guidelines was at the discretion of the treating team. Patients treated with alteplase more than 4.5 hours from stroke onset were not excluded from the trial for this reason alone. Patients had to meet inclusion and exclusion criteria at the EVT hospital. Patients received trial drug, as a single dose of 2.6 mg/kg to a maximum dose of 270 mg, based upon estimated or actual weight (if known) using a dedicated intravenous line. The trial drug was administered as soon as possible after randomization.
Time targets were imaging to randomization 30 minutes, imaging to study drug administration ≤60 minutes, and imaging to arterial access/puncture ≤60 minutes. Targets from imaging to reperfusion were 90th percentile ≤90 minutes and a median at ≤75 minutes. In general, the order of events was imaging to determine eligibility for EVT treatment, study randomization, administration of alteplase (in some patients), administration of nerinetide, and performance of EVT.
The primary outcome was good outcome as defined by a score of 0-2 on the modified Rankin scale (mRS) (range, 0 [no symptoms] to 6 [death]) for the assessment of neurologic functional disability^2 assessed in person or, if an in-person visit was not possible, by telephone, at 90 days after randomization by personnel certified in the scoring of the mRS. […]

[1] = Alteplase stratum, nerinetide n = 330
[2] = No Alteplase stratum, nerinetide n = 219
[3] = No Alteplase stratum, nerinetide n = 219, missing imputed as deaths
[4] = all patients (ITT), nerinetide vs placebo, 90 days
[5] = all patients, nerinetide group n = 549, 90 days
[6] = all patients, nerinetide vs placebo

## CC[C@H](C)[C@H](NC(=O)[C@H](CO)NC(=O)[C@H](CO)NC(=O)[C@H](CC(C)C)NC(=O)[C@H](CCCCN)NC(=O)[C@H](CCCN=C(N)N)NC(=O)[C@H](CCCN=C(N)N)NC(=O)[C@H](CCCN=C(N)N)NC(=O)[C@H](CCC(N)=O)NC(=O)[C@H](CCCN=C(N)N)NC(=O)[C@H](CCCN=C(N)N)NC(=O)[C@H](CCCCN)NC(=O)[C@H](CCCCN)NC(=O)[C@H](CCCN=C(N)N)NC(=O)CNC(=O)[C@@H](N)Cc1ccc(O)cc1)C(=O)N[C@@H](CCC(=O)O)C(=O)N[C@@H](CO)C(=O)N[C@@H](CC(=O)O)C(=O)N[C@H](C(=O)O)C(C)C [Nerinetide] (H-YGRKKRRQRRRKLSSIESDV-OH)
Alteplase stratum
  BI 95-100, unadjusted RR (CI95): 0.96 (0.86-1.07)
  Deaths without imputation, RR: 1.24
  Infarct volume (cubic root transformation), beta coefficient: 0.20 (−0.56 to 0.95)** ml^1/3
  Infarct volume (median): 22.7 mL
  Mortality, unadjusted RR (CI95): 1.14 (0.74-1.76)
  NIHSS 0-2, unadjusted RR (CI95): 0.92 (0.81-1.04)
  mRS 0-1, unadjusted RR (CI95): 0.92 (0.77-1.10)
  mRS 0-2, unadjusted RR (CI95): 0.96 (0.85-1.07)
Alteplase stratum (n = 659)
  BI 95-100, adjusted risk ratio (95% confidence interval): 0.97 (0.88-1.08)
  Mortality, adjusted risk ratio (95% confidence interval): 1.08 (0.70-1.66)
  NIHSS 0-2, adjusted risk ratio (95% confidence interval): 0.92 (0.82-1.04)
  mRS 0-1, adjusted risk ratio (95% confidence interval): 0.91 (0.78-1.08)
Alteplase stratum (n = 659), nerinetide vs placebo, 90 days
  mRS 0-2, adjusted risk ratio (95% confidence interval): 0.97 (0.87-1.08)
Alteplase stratum (n = 659), nerinetide vs placebo, 90 days, listed as nerinetide
  mRS 0-2, adjusted risk ratio (95% confidence interval): 0.97
[1]
  BI 95-100, patients number (proportion): 213 (64.5%)
  Mortality, patients number (proportion): 39 (11.8%)
  NIHSS 0-2, patients number (proportion): 191 (57.9%)
  mRS 0-1, patients number (proportion): 138 (41.8%)
  mRS 0-2, patients number (proportion): 207 (62.7%)
Alteplase stratum, nerinetide n = 330, listed as nerinetide
  mRS 0-2, patients number (proportion): 62.7%
Alteplase stratum, nerinetide vs placebo
  Infarct volume, absolute volume difference of medians: 1.6* ml
No Alteplase stratum
  BI 95-100, unadjusted RR (CI95): 1.16 (0.98-1.38)
  Deaths without imputation, RR: 0.60
  Infarct volume (cubic root transformation), beta coefficient: −0.98 (−1.91 to −0.05)** ml^1/3
  Infarct volume (median): 26.7 mL
  Mortality, unadjusted RR (CI95): 0.63 (0.41-0.97)
  NIHSS 0-2, unadjusted RR (CI95): 1.18 (1.00-1.40)
  mRS 0-1, unadjusted RR (CI95): 1.13 (0.88-1.45)
  mRS 0-2, unadjusted RR (CI95): 1.19 (1.01-1.41)
No Alteplase stratum (n = 446)
  BI 95-100, adjusted risk ratio (95% confidence interval): 1.14 (0.97-1.34)
  Mortality, adjusted risk ratio (95% confidence interval): 0.66 (0.44-0.99)
  NIHSS 0-2, adjusted risk ratio (95% confidence interval): 1.14 (0.97-1.34)
  mRS 0-1, adjusted risk ratio (95% confidence interval): 1.04 (0.82-1.31)
No Alteplase stratum (n = 446), nerinetide vs placebo, 90 days
  mRS 0-2, adjusted risk ratio (95% confidence interval): 1.18 (1.01-1.38)
No Alteplase stratum (n = 446), nerinetide vs placebo, 90 days, listed as nerinetide
  mRS 0-2, adjusted risk ratio (95% confidence interval): 1.18
[2]
  BI 95-100, number of patients: 128
  BI 95-100, proportion of patients: (58.4%)
  NIHSS 0-2, number of patients: 129
  NIHSS 0-2, proportion of patients: (58.9%)
  mRS 0-1, number of patients: 84
  mRS 0-1, proportion of patients: (38.4%)
  mRS 0-2, number of patients: 130
  mRS 0-2, proportion of patients: (59.3%)
[3]
  Mortality, number of patients: 28
  Mortality, proportion of patients: (12.8%)
No Alteplase stratum, nerinetide n = 219, listed as nerinetide
  mRS 0-2, proportion of patients: 59.3%
No Alteplase stratum, nerinetide vs placebo
  Infarct volume, absolute volume difference of medians: −12.5* ml
All patients (ITT), nerinetide 2.6 mg/kg iv vs placebo, 90 days
  mRS 0-2, adjusted risk ratio (95% confidence interval): 1.04 (0.96-1.14)
All patients (ITT), nerinetide 2.6 mg/kg iv vs placebo, 90 days, listed as nerinetide
  mRS 0-2, adjusted risk ratio (95% confidence interval): 1.04
[4]
  BI 95-100, adjusted risk ratio (95% confidence interval): 1.03 (0.94-1.12)
  Mortality, adjusted risk ratio (95% confidence interval): 0.84 (0.63-1.13)
  NIHSS 0-2, adjusted risk ratio (95% confidence interval): 1.01 (0.92-1.11)
  mRS 0-1, adjusted risk ratio (95% confidence interval): 0.98 (0.85-1.12)
All patients, 24-hour imaging
  Infarct volume (median): 23.7 mL
All patients, 24-hour imaging, listed as nerinetide
  Infarct volume (median): 26.0 (iqr 6.6-101.5) ml
[5]
  BI 95-100, patients number (proportion): 341 (62.1%)
  NIHSS 0-2, patients number (proportion): 320 (58.3%)
  mRS 0-1, patients number (proportion): 222 (40.4%)
  mRS 0-2, patients number (proportion): 337 (61.4%)
All patients, nerinetide group n = 549, 90 days, missing outcomes imputed as deaths
  Mortality, patients number (proportion): 67 (12.2%)
All patients, nerinetide group n = 549, 90 days, listed as nerinetide
  mRS 0-2, patients number (proportion): 61.4%
All patients, nerinetide vs control, 24-hour imaging
  Infarct volume (cubic root transformation), adjusted beta coefficient: −0.29 (−0.87 to 0.30)** ml^1/3
[6]
  BI 95-100, unadjusted RR (CI95): 1.03 (0.94-1.13)
  Deaths without imputation, RR: 0.87
  Infarct volume, absolute volume difference of medians: −2.3* ml
  NIHSS 0-2, unadjusted RR (CI95): 1.01 (0.92-1.12)
  mRS 0-1, unadjusted RR (CI95): 0.99 (0.86-1.15)
  mRS 0-2, unadjusted RR (CI95): 1.04 (0.94-1.14)
All patients, nerinetide vs placebo, missing imputed as deaths
  Mortality, unadjusted RR (CI95): 0.85 (0.63-1.15)
Alteplase group
  Infarct volume, mean: 73.3 mL
No alteplase group
  Infarct volume, mean: 67.8 mL
no-alteplase stratum
  Number-needed-to-treat: 10-11 patients
  absolute benefit: 9.4%
Stratum that did not receive alteplase
  absolute risk reduction in mortality at 90 days: 7.5%
Stratum that did not receive alteplase, Cox model
  hazard of death, adj HR: 0.56
